Experimental findings from ChEMBL document CHEMBL1201862, “PubChem BioAssay data set” (2004) are described below.

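Test compounds were applied to cells in 96-well plates for 48 hours at 5 doses. Abbreviation: GI50, concentration required for 50% inhibition of growth.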 Activity calls are given as the source filed them. Rule as the data show it: active = GI50 up to about 1.1 µM and inactive = higher.

What all share (assay): DTP human tumour cell line panel, 48 h
The subject of assay [1] is SK-MEL-2.
Assay [2] relates to NCI-H460.
Assay [3] relates to PC-3.
Assay [4] concerns T47D.
The test system of assay [5] is SF-268.
Assay [6] relates to HL-60.
Assay [7] relates to SK-MEL-5.
Assay [8] has as its system SNB-75.
Assay [9] concerns U-251.
Assay [10] deals with MDA-MB-231.
For assay [11], the system named is ACHN.
Assay [12] deals with Hs-578T.
Assay [13] has as its system MCF7.
Assay [14] relates to SW-620.
The test system of assay [15] is SK-OV-3.
Assay [16] deals with OVCAR-5.
Assay [17] concerns DU-145.
For assay [18], the system named is MDA-MB-435.
In assay [19] the test system is BT-549.
In assay [20] the test system is RPMI-8226.

Consider `Cc1ccc(-c2ccc3c(c2)Sc2ccccc2O3)n1C`, for which the GI50 in assay [1] is 0.13 µM (active); in assay [2], 0.327 µM (active); in assay [3], 0.348 µM (active); in [4], > 100 µM (inactive); in assay [5] it was 0.791 µM (active); in [6] it was 0.125 µM (active). The concentration for 50% growth inhibition (GI50) was 0.356 µM (active) in assay [7]; 0.238 µM (active) in assay [8]; 0.329 µM (active) in assay [9]; 1.19 µM (inactive) in assay [10]; 3.57 µM (inactive) in [11]; 0.604 µM (active) in assay [12]. In addition, the concentration for 50% growth inhibition (GI50) was 0.324 µM (active) in assay [13]; 0.264 µM (active) in assay [14]; 0.536 µM (active) in assay [15]; 0.809 µM (active) in assay [16]; 1.13 µM (inactive) in [17]; 0.0263 µM (active) in assay [18]. The GI50 is 3.29 µM (inactive) in [19] and 0.179 µM (active) in assay [20].
Turning to `C=CCSC(C)=O`, the GI50 in assay [1], in assay [2], in assay [3], in [4], in [5] and in [6] was > 100 µM (inactive) in each case. Besides, the GI50 in assay [7], in assay [8], in assay [9], in [10], in [11] and in [12] was > 100 µM (inactive) each time. The GI50 in assay [13], in assay [14], in [15], in [16], in [17] and in assay [18] was > 100 µM (inactive) in each case. In addition, the GI50 in assay [19] and in assay [20] was > 100 µM (inactive) in each case.
With `O=C1C[C@@H](c2ccc(O)cc2)[C@@]2(O1)C(=O)O[C@H]([C@@H](O)CO)[C@@H]2O`, the GI50 in assay [1], in [2], in assay [3], in assay [4], in assay [5] and in assay [6] was > 100 µM (inactive) throughout. Moreover, the GI50 in assay [7], in assay [8], in assay [9], in assay [10], in assay [11] and in assay [12] was > 100 µM (inactive) each time. Besides, the GI50 in assay [13], in assay [14], in [15], in assay [16], in [17] and in assay [18] was > 100 µM (inactive) throughout. Besides, the GI50 in assay [19] and in assay [20] was > 100 µM (inactive) each time.
Take `CC(=O)OC/C=C(\C)CCC(Br)C(C)(C)Br` (stereo not given): the GI50 in [1], in assay [2], in assay [3], in assay [4], in [5] and in [6] was > 10 µM (inactive) in each case. In addition, the GI50 in assay [7], in [8], in [9], in assay [10], in [11] and in assay [12] was > 10 µM (inactive) in each case. Further, the GI50 in assay [13], in [14], in assay [15], in assay [16], in [17] and in assay [18] was > 10 µM (inactive) throughout. The GI50 in [19] and in [20] was > 10 µM (inactive) each time.
With `O=Cc1ccc(-c2nccc3c2[nH]c2ccccc23)o1`, the GI50 in assay [1] was > 95.5 µM (inactive); in assay [2] it was 38.9 µM (inactive); in assay [3], 98.2 µM (inactive); in assay [4], 47.9 µM (inactive); in [5] it was > 100 µM (inactive); in assay [6], 74.8 µM (inactive). In addition, the GI50 in assay [7] was 82.2 µM (inactive); in assay [8], > 100 µM (inactive); in [9], 68.9 µM (inactive); in [10] it was > 85.1 µM (inactive); in assay [11] it was > 100 µM (inactive); in [12], 19.4 µM (inactive). Further, the GI50 in assay [13] was 55 µM (inactive); in assay [14], > 100 µM (inactive); in assay [15] it was 97.7 µM (inactive); in assay [16], 12.3 µM (inactive); in [17] it was > 100 µM (inactive); in assay [18], > 100 µM (inactive). The GI50 is > 100 µM (inactive) in [19] and > 81.8 µM (inactive) in [20].
Take `Clc1cccc(/C=N/C23CC4CC(CC(C4)C2)C3)c1Cl`: the GI50 was > 10 µM (inactive) in assay [1]; > 10 µM (inactive) in assay [2]; > 10 µM (inactive) in assay [3]; > 10 µM (inactive) in [4]; > 10 µM (inactive) in assay [5]; 6.28 µM (inactive) in assay [6]. The GI50 in assay [7] was > 10 µM (inactive); in [8], 5.36 µM (inactive); in assay [9], > 10 µM (inactive); in [10], > 10 µM (inactive); in assay [11], > 10 µM (inactive); in assay [12] it was > 10 µM (inactive). Besides, the GI50 in assay [13], in assay [14], in [15], in assay [16], in assay [17] and in assay [18] was > 10 µM (inactive) in each case. Also, the GI50 in assay [19] and in [20] was > 10 µM (inactive) each time.
As to `C=CC(C)(C)n1cc(C2=C(O)C(=O)C(c3cn(C(C)(C)C=C)c4ccccc34)=C(OC(C)=O)C2=O)c2ccccc21`, the concentration for 50% growth inhibition (GI50) in [1] is 1.02 µM (active); in [2], 0.592 µM (active); in assay [3] it was 0.75 µM (active); in [4], 1.68 µM (inactive); in assay [5] it was 0.655 µM (active); in [6] it was 0.571 µM (active). For the same molecule, the 50% growth inhibitory concentration (GI50) in assay [7] was 0.64 µM (active); in assay [8], 0.419 µM (active); in assay [9] it was 0.426 µM (active); in [10], 1.3 µM (inactive); in assay [11] it was 1.27 µM (inactive); in [12] it was 0.646 µM (active). Besides, the 50% growth inhibitory concentration (GI50) in assay [13] was 0.0715 µM (active); in assay [14], 1.53 µM (inactive); in assay [15], 1.49 µM (inactive); in [16] it was 1.66 µM (inactive); in assay [17], 1.04 µM (active); in assay [18] it was 0.513 µM (active). Moreover, the 50% growth inhibitory concentration (GI50) in [19] is 0.494 µM (active); in assay [20], 0.984 µM (active).
For `Cn1c(N2CCCC2)c(C=O)c(=O)n(C)c1=O`, the GI50 is > 100 µM (inactive) in assay [1]; > 100 µM (inactive) in assay [2]; > 100 µM (inactive) in [3]; > 100 µM (inactive) in [4]; 96.8 µM (inactive) in assay [5]; > 100 µM (inactive) in assay [6]. Also, the GI50 in assay [7] was > 100 µM (inactive); in [8] it was 14.1 µM (inactive); in assay [9], > 100 µM (inactive); in [10], > 100 µM (inactive); in assay [11], > 100 µM (inactive); in assay [12], 91.6 µM (inactive). Also, the GI50 in assay [13], in [14], in [15], in assay [16], in [17] and in assay [18] was > 100 µM (inactive) throughout. The GI50 in assay [19] and in assay [20] was > 100 µM (inactive) in each case.
In the case of `Cc1[nH]c(-c2ccccc2)c2nc(N(C)C)oc(=O)c12`, the GI50 in assay [1], in assay [2], in assay [3], in assay [4], in [5] and in assay [6] was > 100 µM (inactive) throughout. In addition, the GI50 in assay [7], in [8], in assay [9], in assay [10], in assay [11] and in assay [12] was > 100 µM (inactive) each time. Also, the GI50 in [13], in [14], in assay [15], in assay [16], in [17] and in assay [18] was > 100 µM (inactive) throughout. Besides, the GI50 in assay [19] and in assay [20] was > 100 µM (inactive) throughout.
Consider `CN(C)CCn1c(=O)c2ccc(NCCNCCO)c3c(=O)c4ccccc4n(c1=O)c23`, for which the GI50 in [1] is 0.423 µM (active); in [2], < 0.01 µM (active); in assay [3], 0.182 µM (active); in assay [4], 0.129 µM (active); in assay [5], 0.0471 µM (active); in assay [6], < 0.01 µM (active). The GI50 in [7] was 0.0716 µM (active); in assay [8], 0.0445 µM (active); in assay [9], 0.0468 µM (active); in assay [10] it was 0.22 µM (active); in [11], 0.0116 µM (active); in assay [12] it was 0.23 µM (active). Also, the GI50 is < 0.01 µM (active) in [13]; 0.027 µM (active) in assay [14]; 0.164 µM (active) in [15]; 0.298 µM (active) in assay [16]; 0.0217 µM (active) in assay [17]; 0.228 µM (active) in assay [18]. In addition, the GI50 was 1.21 µM (inactive) in assay [19] and < 0.0394 µM (active) in [20].
